We go through 41 molecules from article doi:10.1101/757047v1 (biorxiv, 2019).

The target in assay [1] is T1, full length GAK protein N-terminally fused with NanoLuc luciferase (Homo sapiens, UniProt O14976).
T1 sequence (O14976 2-1311): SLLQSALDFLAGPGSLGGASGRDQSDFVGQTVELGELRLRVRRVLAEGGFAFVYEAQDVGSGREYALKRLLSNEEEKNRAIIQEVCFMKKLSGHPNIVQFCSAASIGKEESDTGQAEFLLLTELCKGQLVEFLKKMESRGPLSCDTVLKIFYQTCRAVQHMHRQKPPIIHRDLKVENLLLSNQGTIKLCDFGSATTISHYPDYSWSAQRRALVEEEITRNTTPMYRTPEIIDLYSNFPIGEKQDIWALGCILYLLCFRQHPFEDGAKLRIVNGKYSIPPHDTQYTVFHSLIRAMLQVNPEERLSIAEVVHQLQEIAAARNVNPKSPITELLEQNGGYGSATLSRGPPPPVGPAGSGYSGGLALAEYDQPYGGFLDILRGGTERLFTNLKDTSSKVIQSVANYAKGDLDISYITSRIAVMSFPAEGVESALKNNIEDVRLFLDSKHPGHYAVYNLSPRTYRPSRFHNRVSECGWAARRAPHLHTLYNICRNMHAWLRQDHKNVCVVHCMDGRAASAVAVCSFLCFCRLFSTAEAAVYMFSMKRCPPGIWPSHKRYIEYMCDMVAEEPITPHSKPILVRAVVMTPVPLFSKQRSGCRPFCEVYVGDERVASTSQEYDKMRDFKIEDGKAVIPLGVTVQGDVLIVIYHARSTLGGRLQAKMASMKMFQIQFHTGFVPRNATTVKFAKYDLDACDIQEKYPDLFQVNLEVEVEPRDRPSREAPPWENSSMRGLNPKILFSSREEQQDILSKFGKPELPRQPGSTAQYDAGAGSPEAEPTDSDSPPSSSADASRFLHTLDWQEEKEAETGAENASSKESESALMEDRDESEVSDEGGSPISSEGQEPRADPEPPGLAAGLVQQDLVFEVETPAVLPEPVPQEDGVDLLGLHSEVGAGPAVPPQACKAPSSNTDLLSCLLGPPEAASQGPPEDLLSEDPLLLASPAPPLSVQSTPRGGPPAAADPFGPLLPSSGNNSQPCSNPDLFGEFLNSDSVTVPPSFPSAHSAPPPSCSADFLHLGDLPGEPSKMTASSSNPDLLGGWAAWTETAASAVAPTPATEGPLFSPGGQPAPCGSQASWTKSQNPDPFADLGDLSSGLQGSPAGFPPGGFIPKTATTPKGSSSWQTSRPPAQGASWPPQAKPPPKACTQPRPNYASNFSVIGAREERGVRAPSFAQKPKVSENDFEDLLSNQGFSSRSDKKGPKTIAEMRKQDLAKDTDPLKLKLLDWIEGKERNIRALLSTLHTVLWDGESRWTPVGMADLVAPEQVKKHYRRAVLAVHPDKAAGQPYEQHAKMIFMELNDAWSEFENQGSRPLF
The assay is described as follows: nanoBRET cellular target engagement. The assay is classed as cell-based.

The target in assay [2] is T2, GAK (Homo sapiens, UniProt O14976).
T2 sequence (O14976 12-347 limits assumed): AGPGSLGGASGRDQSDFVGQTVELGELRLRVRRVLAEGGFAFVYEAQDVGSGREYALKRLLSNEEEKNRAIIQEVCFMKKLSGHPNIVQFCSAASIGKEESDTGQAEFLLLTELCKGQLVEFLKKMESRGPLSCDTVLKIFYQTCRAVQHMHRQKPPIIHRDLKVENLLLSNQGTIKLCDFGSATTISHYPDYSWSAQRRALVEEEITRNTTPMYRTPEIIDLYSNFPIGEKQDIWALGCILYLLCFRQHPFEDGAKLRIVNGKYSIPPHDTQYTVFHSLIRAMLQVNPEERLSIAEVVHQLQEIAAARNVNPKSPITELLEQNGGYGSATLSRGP
The assay is described as follows: TR-FRET binding displacement assay. In general terms: TR-FRET usually uses a lanthanide donor and a delayed reading to cut background.

Assay [3] deals with T1, full length GAK protein N-terminally fused with NanoLuc luciferase. The assay is described as follows: cell-based. More on the design: species or system HEK293T.
The target in assay [4] is T3, SLK (Homo sapiens, UniProt Q9H2G2). The assay can be described thus: TR-FRET binding displacement assay.
T3 sequence (Q9H2G2 34-292): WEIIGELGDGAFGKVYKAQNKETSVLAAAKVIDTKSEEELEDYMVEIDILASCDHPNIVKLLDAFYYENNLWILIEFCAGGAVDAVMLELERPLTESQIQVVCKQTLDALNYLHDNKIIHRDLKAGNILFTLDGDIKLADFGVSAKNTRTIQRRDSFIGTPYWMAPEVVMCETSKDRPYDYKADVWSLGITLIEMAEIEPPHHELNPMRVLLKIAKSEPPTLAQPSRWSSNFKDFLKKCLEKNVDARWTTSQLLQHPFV
Assay [5] addresses T4, STK10 (Homo sapiens, UniProt O94804). The assay can be described thus: TR-FRET binding displacement assay.
For assay [6], the target named is T3, SLK. The assay is described as follows: biochemical.
Assay [7] deals with T4, STK10. The assay can be described thus: biochemical.
For assay [8], the target named is T1, full length GAK protein N-terminally fused with NanoLuc luciferase. The assay can be described thus: cell-based. Details: species or system HEK293T. The source holds these as a separate data set.
The mark [9] stands for this setting: ATP site tracer displacement, 16-point dose response.
[10] abbreviates: HEK293T cells, tracer displacement, n=[…] mean.

Molecules are shown by their SMILES. Where two headings read alike, the source gives them in different places. A value given as a limit tells only on which side of the number the result lay.

T4 sequence (O94804 36-294 limits assumed): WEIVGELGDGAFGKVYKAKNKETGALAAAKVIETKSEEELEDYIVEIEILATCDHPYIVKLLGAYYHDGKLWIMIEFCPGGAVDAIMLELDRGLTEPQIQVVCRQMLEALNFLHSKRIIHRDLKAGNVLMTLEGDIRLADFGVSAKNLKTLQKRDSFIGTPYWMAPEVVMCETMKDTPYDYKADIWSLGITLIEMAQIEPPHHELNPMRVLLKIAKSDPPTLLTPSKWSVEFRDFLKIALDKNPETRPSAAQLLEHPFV

`CCOc1cc2ncc(C#N)c(Nc3ccc(OCc4ccccn4)c(Cl)c3)c2cc1NC(=O)/C=C/CN(C)C` [Neratinib]: in assay [1], the IC50 – broadly, the concentration at which inhibition is half-maximal – worked out at 2300 nM. Further, the Ki (commonly a measure of affinity in units of concentration, obtained from inhibition or displacement) in assay [2] came to 290 nM.

Take `COc1cc(Nc2ncnc3cc(Cl)ccc23)cc(OC)c1OC` [compound 32, 32]: in assay [3], half-maximal inhibition (IC50) required 3200 nM.

In assay [1], `COc1cc(Nc2ccnc3cc(C#N)ccc23)cc(OC)c1OC` [compound 21, 21] gave an IC50 of 350 nM. The Ki in assay [4] was 1100 nM; in assay [5] it was 130 nM; in assay [2] (setting [9]), 2.7 nM.

In the case of `COc1cc(Nc2ccnc3ccc(Br)cc23)cc(OC)c1OC` [compound 2, SGC-GAK-1], the Ki in assay [4] amounted to 34000 nM; in assay [5] it was 4600 nM.

Turning to `COc1ccc2c(Nc3cc(OC)c(OC)c(OC)c3)ccnc2c1` [compound 22, 22], the IC50 in assay [1] (setting [10]) is 440 nM. Also, the values for the Ki in assay [4], in assay [5] and in assay [2] (setting [9]) were 13000 nM, 1300 nM and 2.6 nM, respectively.

For the molecule `C#Cc1cccc(Nc2c(C#N)cnc3cc(OC)c(OC)cc23)c1` [compound 82, 82], the IC50 in assay [1] (HEK293T cells, tracer displacement) was found to be 40 nM. Moreover, the Ki in assay [2] (setting [9]) is 0.32 nM.

The molecule `COc1cc2nccc(Nc3cc(OC)c(OC)c(OC)c3)c2cc1OC` [compound 3, 3] returned an IC50 in assay [1] of 26 nM. The Ki came to 7100 nM in assay [4] and 1100 nM in assay [5].

Turning to `COc1cc(Nc2ccnc3ccc(I)cc23)cc(OC)c1OC` [compound 11, 11], the IC50 in assay [1] is 110 nM. Moreover, the results for the inhibition constant Ki in assay [4], in assay [5] and in assay [2] were 5800 nM, 24300 nM and 3.8 nM, respectively.

In the case of `COc1cc(Nc2ccnc3cc(F)c(F)cc23)cc(OC)c1OC` [compound 9, 6,7-difluoro-N-(3,4,5-trimethoxyphenyl)quinolin-4-amine], inhibition in assay [1] was half-maximal at 140 nM (IC50). Moreover, the Ki in assay [4] was 26000 nM; in assay [5] it was 2700 nM; in assay [2], 6.9 nM.

Molecule `COCCOc1cc2ncnc(Nc3cc(OC)c(OC)c(OC)c3)c2cc1OCCOC` [compound 42, 42] showed an IC50 in assay [3] of 3000 nM.

With `COc1cc(Nc2ccnc3ccc(C#N)cc23)cc(OC)c1OC` [compound 13, 13], in assay [1], the IC50 stood at 360 nM. For the same molecule, the results for the Ki in assay [4], in assay [5] and in assay [2] (setting [9]) were 19000 nM, 1700 nM and 1.5 nM, respectively.

`COc1cc(Nc2ccnc3ccc(C(F)(F)F)cc23)cc(OC)c1OC` [compound 12, 12]: the Ki in assay [4] is 33000 nM; in assay [5] it was 4600 nM.

As to `COc1cc(Nc2ncnc3ccc(I)cc23)cc(OC)c1OC` [compound 29, 29], the IC50 in assay [3] came out at 890 nM.

`COc1cc(Nc2ncnc3cc(F)c(F)cc23)cc(OC)c1OC` [compound 26, 26]: the IC50 in assay [3] is more than 5000 nM.

In turn, `COc1cc(Nc2ncnc3ccc(Cl)cc23)cc(OC)c1OC` [compound 27, 27] registered an IC50 in assay [3] of 2400 nM.

Consider `COc1cc(Nc2ccnc3ccc(S(C)(=O)=O)cc23)cc(OC)c1OC` [compound 15, 15], for which the Ki in assay [4] came out at 23000 nM; in assay [5], 2400 nM.

Turning to `COc1cc(Nc2ccnc3cc(C(F)(F)F)ccc23)cc(OC)c1OC` [compound 20, 20], in assay [1] (setting [10]), the IC50 was found to be 520 nM. The results for the Ki in assay [4], in assay [5] and in assay [2] (setting [9]) were 3200 nM, 370 nM and 6.2 nM, respectively.

In turn, `COc1ccc2ncnc(Nc3cc(OC)c(OC)c(OC)c3)c2c1` [compound 39, 39] registered an IC50 in assay [3] of 3400 nM.

Regarding `C#Cc1cccc(Nc2ncnc3ccc(S(C)(=O)=O)cc23)c1` [compound 69, N-(3-ethynylphenyl)-6-(methylsulfonyl)quinazolin-4-amine], the results for the Ki in assay [2], in assay [6] and in assay [7] were 420 nM, 1300 nM and 1300 nM, respectively. Moreover, the IC50 in assay [8] was more than 5000 nM.

Consider `CCOc1cc2ncc(C#N)c(Nc3ccc(F)c(Cl)c3)c2cc1NC(=O)/C=C/CN(C)C` [Pelitinib], for which the IC50 in assay [1] came out at 12 nM. The molecule further yielded a Ki in assay [4] of 280 nM.

In assay [3], `COc1cc(Nc2ncnc3ccc(C(F)(F)F)cc23)cc(OC)c1OC` [compound 30, 30] displayed an IC50 of 4500 nM.

On to `COc1cc(Nc2ncnc3ccc(Br)cc23)cc(OC)c1OC` [compound 28, 28], for which the IC50 in assay [3] was 1800 nM.

As for `COc1cc(Nc2ccnc3ccc(F)cc23)cc(OC)c1OC` [compound 8, 8], the figures for the Ki in assay [4] and in assay [5] were 5100 nM and 45900 nM, respectively.

For the molecule `COc1cc(Nc2ncnc3ccc(C#N)cc23)cc(OC)c1OC` [compound 37, 37], the IC50 in assay [3] is more than 5000 nM.

Regarding `COc1cc2ncnc(Nc3ccc(F)c(Cl)c3)c2cc1NC(=O)/C=C/CN1CCCCC1` [Dacomitinib], in assay [1], the midpoint of inhibition, the IC50, lay at 49 nM. The Ki in assay [4] was 1100 nM; in assay [5], 590 nM; in assay [2], 7 nM.

In turn, `COc1cc(Nc2ncnc3cc(F)ccc23)cc(OC)c1OC` [compound 31, 31] registered an IC50 in assay [3] of more than 5000 nM.

In assay [5], `COc1cc2ncnc(Nc3ccc(F)c(Cl)c3)c2cc1OCCCN1CCOCC1` [Gefitinib] showed a Ki of 340 nM.

Molecule `COc1cc(Nc2ncnc3cc(Br)ccc23)cc(OC)c1OC` [compound 33, 33] came in with an IC50 in assay [3] of 4200 nM.

Regarding `COc1cc(Nc2ncnc3ccccc23)cc(OC)c1OC` [compound 23, 23], the IC50 in assay [3] is 4600 nM.

Regarding `COc1cc(Nc2ncnc3ccc(C)cc23)cc(OC)c1OC` [compound 24, 24], half-maximal inhibition in assay [3] (IC50) was put at 2100 nM.

For `C#Cc1cccc(Nc2ncnc3cc(OC)c(OC)cc23)c1` [compound 71, 71], the Ki came out at 140 nM in assay [4], 120 nM in assay [5] and 1 nM in assay [2].

For `C#Cc1cccc(Nc2ncnc3cc4c(cc23)OCCO4)c1` [compound 74, 74], the Ki in assay [6] stood at 3600 nM; in assay [7], 1700 nM. For the same molecule, 3200 nM corresponded to half-maximal inhibition in assay [8] (IC50).

In assay [3], `COc1cc(Nc2ncnc3cc(C(F)(F)F)ccc23)cc(OC)c1OC` [compound 35, 35] had an IC50 of more than 5000 nM.

Turning to `COc1cc(Nc2ccnc3cc(F)ccc23)cc(OC)c1OC` [compound 16, 16], the Ki in assay [4] turned out to be 17000 nM; in assay [5], 1600 nM.

With `COc1ccc2c(Nc3cc(OC)c(OC)c(OC)c3)ncnc2c1` [compound 41, 41], in assay [3], the IC50 was 1600 nM.

As to `C#Cc1cccc(Nc2ncnc3cc(Cl)ccc23)c1` [compound 63, 63], the values for the Ki in assay [6] and in assay [7] were 360 nM and 440 nM, respectively. The molecule also gave an IC50 in assay [8] of more than 5000 nM.

Molecule `COc1cc(Nc2ncnc3cc(I)ccc23)cc(OC)c1OC` [compound 34, 34] had a half-maximal inhibitory concentration (IC50) in assay [3] of 2400 nM.

As to `COc1cc(Nc2ncnc3ccc(F)cc23)cc(OC)c1OC` [compound 25, 25], half-maximal inhibition in assay [3] (IC50) required 3600 nM.

In assay [2], `COc1cc(Nc2ncnc3cc(C#N)ccc23)cc(OC)c1OC` [compound 36, 4-((3,4,5-trimethoxyphenyl)amino)quinazoline-7-carbonitrile] had a Ki of 210 nM. The same molecule yielded an IC50 in assay [3] of more than 5000 nM.

For the molecule `C#Cc1cccc(Nc2ncnc3cc(OC)c(OC)cc23)c1` [compound 71], the IC50 in assay [8] came out at 79 nM.

In turn, `COc1cc(Nc2ncnc3ccc(S(C)(=O)=O)cc23)cc(OC)c1OC` [compound 38, 38] had an IC50 in assay [3] of more than 5000 nM.
